{
  "source": "patent US20160287529A1",
  "about": "“METHOD FOR TREATING AND PREVENTING RECURRENT INTERDIGITAL TINEA PEDIS (ATHLETE'S FOOT) DISEASE” (priority 2015, published 2016)",
  "origin": "cited, not measured here",
  "system": "fungal infections of the skin and nails of the human foot",
  "settings": "topical treatment",
  "data": [
    {"smiles": "C=CCCCCCCCCC(=O)O", "note": "[undecenoic acid]", "values": [
      {"measurement": "effectiveness compared with the allylamines", "value": "less effective"}
    ]},
    {"smiles": "Cc1cccc(N(C)C(=S)Oc2ccc3ccccc3c2)c1", "note": "[tolnaftate]", "values": [
      {"measurement": "effectiveness compared with the allylamines", "value": "less effective"}
    ]}
  ]
}
